Measured values: ChEMBL document CHEMBL3045947, “Identification of Novel Non-nucleoside Reverse Transcriptase Inhibitors Using Fragment-based Lead Generation” (Med Chem Res, 2005)

How the values were obtained:
[1] = system: Human immunodeficiency virus 1; assay: Antiviral activity against Human immunodeficiency virus 1 IIIB infected human MT4 cells assessed as inhibition of virus-induced cytopathic effect after 7 days by MTT assay; type: functional, organism-based; settings: MT4, 168 h
[2] = Cytotoxicity against Homo sapiens (human) MT4 cells after 5 days by MTT assay; type: cell-based
[3] = Selectivity index, ratio of CC50 for human MT4 cells to EC50 for HIV13B; type: toxicity, cell-based; settings: read-out: Ratio CC50/EC50

Compound	EC50 [1]	CC50 at 120 h [2]	selectivity ratio [3]
COc1ccc(-c2cc(-c3ccccc3O)nc(N)n2)cc1	> 92.2 µM	92.2 µM	–
Cc1cccc(-c2cc(-c3ccccc3O)nc(N)n2)c1	3.45 µM	13 µM	4
Nc1nc(-c2ccco2)cc(-c2ccccc2O)n1	> 125 µM	> 125 µM	–
COc1ccc(-c2cc(-c3ccccc3O)nc(N)n2)cc1OC	> 7.36 µM	7.36 µM	–
Cc1ccc(-c2cc(-c3ccccc3O)nc(N)n2)cc1	> 125 µM	> 128 µM	–
COc1cccc(-c2cc(-c3ccccc3O)nc(N)n2)c1	> 78.3 µM	> 78.3 µM	–
Nc1nc(-c2cccc(Cl)c2)cc(-c2ccccc2O)n1	> 125 µM	> 125 µM	–
Nc1nc(-c2ccc(Cl)cc2)cc(-c2ccccc2O)n1	> 74.7 µM	> 74.7 µM	–
Nc1nc(-c2cccs2)cc(-c2ccccc2O)n1	5.59 µM	5.3 µM	–
Nc1nc(-c2ccccc2)cc(-c2ccccc2O)n1	3.22 µM	31.3 µM	10
Nc1nc(-c2ccc(F)cc2)cc(-c2ccccc2O)n1	> 67.5 µM	67.5 µM	–
